Values after ≈ are worked out from the molar mass of the structure shown.
Experiments:
[1] = Apparent permeability across apical to basolateral side in low efflux MDCK cells; type: ADME, cell-based, Canis lupus familiaris; settings: dog
[2] = biological target: T1, E3 ubiquitin-protein ligase TRIM58 (Homo sapiens, UniProt Q8NG06); assay: Displacement of Ac-DKSDLKAELERKK-C(BODIPY-FL-M)-RLAQIREEKKRKEE-NH2 peptide probe from TRIM58 (279 to 466 residue) (unknown origin) preincubated for 30 mins followed by probe addition by fluorescence polarization method
T1 sequence (Q8NG06 whole entry): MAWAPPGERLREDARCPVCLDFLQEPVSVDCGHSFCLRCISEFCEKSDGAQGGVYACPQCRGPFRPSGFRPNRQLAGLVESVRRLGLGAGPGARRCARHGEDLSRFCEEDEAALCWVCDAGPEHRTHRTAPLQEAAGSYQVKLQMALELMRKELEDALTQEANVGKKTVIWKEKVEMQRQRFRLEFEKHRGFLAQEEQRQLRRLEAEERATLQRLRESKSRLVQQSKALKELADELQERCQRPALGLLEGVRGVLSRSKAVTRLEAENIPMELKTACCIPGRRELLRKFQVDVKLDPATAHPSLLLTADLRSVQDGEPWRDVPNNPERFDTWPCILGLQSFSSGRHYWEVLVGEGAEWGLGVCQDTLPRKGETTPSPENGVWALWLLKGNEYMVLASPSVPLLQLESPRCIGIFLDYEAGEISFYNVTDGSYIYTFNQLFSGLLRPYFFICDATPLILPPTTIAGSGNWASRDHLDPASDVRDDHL

[3] = Solubility of the compound at pH 6.8 by high-throughput equilibrium solubility assay; type: physicochemical; settings: buffer
[4] = Lipophilicity, log D of the compound in octanol/buffer system at pH 7.4 by shake-flask based LC/MSMS analysis; type: physicochemical
[5] = biological target: T1, E3 ubiquitin-protein ligase TRIM58; assay: Binding affinity against N-terminal 6His-tagged TRIM58 (251 to 466 residue) (unknown origin) expressed in Escherichia coli BL21 (DE3) by SPR assay

Structure (SMILES) | Papp A→B [1] [×10⁻⁶ cm/s] | EC50 [2] [µM] | solubility thermodynamic [3] [µM] | logD [4] | Kd [5] [µM]
CNCCCNc1nc(NCC2CCNCC2)c2cc(-c3ccccc3)ccc2n1 | 0.6 | > 100 | > 750 | 1.2 | –
c1ccc2cc(-c3nn[nH]n3)c(NCC3CCNCC3)cc2c1 | – | > 100 | – | – | –
CNc1nc(NC)c2cc(-c3ccccc3)ccc2n1 | – | 75 | 100 (≈ 26.4 µg/mL) | 1.7 | –
CNc1nc(OCC2CCNCC2)c2cc(-c3ccccc3)ccc2n1 | 29 | 74 | > 750 | -0.5 | –
CNc1nc(NCC2CCNCC2)c2ccccc2n1 | 1.6 | > 100 | > 750 | -0.8 | –

The next compounds have a lower EC50 [2] than those just listed; values first:

Papp A→B [1] [×10⁻⁶ cm/s] | EC50 [2] [µM] | solubility thermodynamic [3] [µM] | logD [4] | Kd [5] [µM] | Structure (SMILES)
3.5 | 8.6 | 20 (≈ 7.75 µg/mL) | 1.1 | – | c1ccc(-c2ccc3nc(NCC4CC4)nc(NCC4CCNCC4)c3c2)cc1
1.6 | 12 | 80 (≈ 27.8 µg/mL) | – | – | CNc1nc(NCC2CCNCC2)c2cc(-c3ccccc3)ccc2n1
24 | 12.7 | 40 (≈ 17 µg/mL) | 3.3 | – | CN(C)CCCNc1nc(NCCc2ccccc2)c2cc(-c3ccccc3)ccc2n1
– | 5.3 | > 1000 | < -1 | 24 | CN(C)CCCNc1nc(NCC2CCNCC2)c2cc(-c3ccccc3)ccc2n1
19 | 7.4 | 60 (≈ 24.3 µg/mL) | 4 | – | CCCCCCNc1nc(NCCCN(C)C)nc2ccc(-c3ccccc3)cc12
1.1 | 6.6 | > 750 | 0.5 | – | CNc1nc(NCC2CCNCC2)c2cc(C3CCCCC3)ccc2n1

From ChEMBL document CHEMBL5390305, “Discovery of Ligands for TRIM58, a Novel Tissue-Selective E3 Ligase” (ACS Med Chem Lett, 2023)
